Several values for one entry are separate records, joined by “and”; a condition that tells them apart may be missing. Equal entries are not always repeated. Where two headings read alike, the source gives them in different places.
Experiments:
[1] = test system: HL60 cells
[2] = test system: HL60 cells; experiment: Cell viability as a function of time; type: cell-based, human; details: irradiated; for cell viability: 2 hours
[3] = test system: HL60 cells; experiment: Genomic DNA laddering by gel electrophoresis; type: cell-based, human; details: dark / not irradiated
Text: To further analyze the mechanisms of cell death induced by 9 and 10, the degradation pattern of genomic DNA was investigated. DNA laddering was observed as a result of DNA fragmentation stemming from the execution phase of apoptosis. In contrast, necrotic cell death lacked this characteristic laddering effect, allowing differentiation between these two mechanisms. […] This laddering was absent in the cells treated with ethanol and compounds 9 and 10 in the dark. […] In contrast, given the cytotoxicity of 9 in the dark and the presence of the 55 kDa PARP fragment, it appears that necrotic cell death is one pathway for […]. For compound 10 the absence of DNA laddering may be a result of the lack of cytotoxicity of the negatively charged compound.

[4] = test system: HL60 cells; experiment: Western blot of PARP and caspase 3 cleavage; type: cell-based, human; details: for 55 kDa PARP fragment (marker for necrosis): protected from light and irradiated
Description: Given the different cellular localization properties and time profiles for cell death induced by 9 and 10, the mechanism of cell death was investigated. Indicators of apoptotic cell death (activation of PARP and caspase 3 through proteolysis) were determined in HL60 cells treated with either 9 or 10 (FIGS. 15A and 15B).
The generation of an alternate 55 kDa PARP fragment was determined by immunoblot as a marker for necrosis with 10% (v/v) ethanol used as a control that induces necrosis.

[5] = test system: pUC19 plasmid DNA; experiment: pUC19 plasmid DNA damage by gel electrophoresis (Example 4); type: biochemical; details: for DNA damage when exposed to light: 40 J/cm^2 >400 nm light
Description: Their DNA damaging properties were assessed with pUC19 plasmid DNA using gel electrophoresis. […] Samples were then incubated for 24 hours at room temperature protected from light. Controls were prepared to simulate single and double strand DNA breaks, and the DNA samples resolved on agarose gels. Samples were resolved using 1% agarose gels prepared in tris-acetate (TA) buffer. Each lane was loaded with 0.3 μg of pUC19 and the samples run for 90 minutes at […]. The gels were stained with 500 ng/mL ethidium bromide in TA buffer at room temperature for 40 minutes. […] In contrast, 10 is a more hydrophilic molecule, and the negatively charged sulfonate functional groups were anticipated to cause electrostatic repulsions between the complex and the negatively charged backbone of the DNA. DNA precipitation or smearing was not observed with up to 500 μM of […] (FIG. 12B).

[6] = test system: HL60 cells; experiment: Mitochondrial membrane potential (TMRE); type: cell-based, human; details: for effect on mitochondrial potential: dark and irradiated
Text: FIGS. 14A to 14D includes charts showing mitochondrial potential and cell viability of HL60 cells as a function of time for (FIG. 14A) 9, dark, (FIG. 14B) 9, irradiated; (FIG. 14C) 10, dark; (FIG. 14D) 10, irradiated. TMRE was used to quantify membrane potential; values are relative to a no-compound control value of 100.
TMRE is a cationic dye that accumulates in active motochondria as a result of the negative membrane potential (Δψm).

[7] = test system: A549 cells; experiment: Uptake and subcellular localization by Apoptome microscopy; type: cell-based, human
Description: The emission of 9 and 10 was measured in A549 cells using an Apoptome microscope. The relative rates of uptake of each of the complexes were analyzed as a function of time, and both 9 and 10 were visible inside cells as early as 2 hours after compound addition, consistent with the flow data and the ICP-OES results. Images were taken at 2, 8, 18 and 24 hours, and intracellular levels of both complexes appeared to plateau around 8 hours.
Differences in the intracellular localization of 9 and 10 were evaluated by determining colocalization of luminescence of the compound and fluorescent markers of organelles in A549 cells. Overlap in signals between the compounds, cellular nucleus, mitochondria and lysosome was measured over a 24 hour period.

[8] = test system: HL60 cells; remark: listed apart in the source
[9] = Log P; type: physicochemical
[10] = biological target: CT DNA; experiment: DNA binding affinity (Kb) with CT DNA; design: species or system calf; details: racemic mixtures
Text: Intercalation of both complexes was consistent with the reduced mobility of supercoiled plasmid DNA in agarose gels, and the modulation of the absorption spectra in the presence of DNA, characterized by hypochromism of both the π-π* of the dppz ligand and the MLCT transitions, with maximal effect at a ratio of 2:1 DNA base pairs to metal center. Thus, the strained complex retained DNA-sensing capabilities of other Ru^II “light-switch” molecules and photochemical reactivity.

[11] = test system: HL60 promyelocytic leukemia cell line; experiment: Cell survival assay, HL60; type: cell-based
Description: (§1) The HL60 promyelocytic leukemia cell line was obtained from ATCC and cultured in IMDM media (Invitrogen; Carlsbad, Calif.) supplemented with 10% serum supreme (Lonza; Basel, Switzerland) and penicillin/streptomycin at 37° C. with 5% CO2. The A549 cell line was donated and cultured in DMEM supplemented with glutamax, 10% serum supreme, and penicillin/streptomycin at 37° C. with 5% CO2. Cells were plated in Optimem (Life Technologies; Carlsbad, Calif.) supplemented with 1% serum supreme and penicillin/streptomycin at 30,000 cells per well in Costar 96 well flat bottom clear tissue culture treated plates for HL60 and 1500 cells/well for A549. […] The cells were then incubated for 72 hours followed by the addition of Cell Titer Glo (Promega; Madison, Wis.) to determine viability. Dark controls were run in parallel. The resulting luminescence was measured using the SpectraFluor Plus Plate Reader (Tecan). Data were fit to an equation for a sigmoidal dose response using the equation below, where yi and yf are the initial and final signal intensities.
(§2) Cell cytotoxicity studies were performed in HL60 leukemia cells and A549 lung cancer cells (see FIG. 7 and Table 3). Cells were incubated with compounds for 12 hours in the dark before irradiated with >450 nm light (410 W) for 3 minutes. Dark controls were run in parallel. Cell survival was quantified 72 hours later through the use of an ATP luciferase assay, and confirmed by Trypan Blue staining and manual counting.

[12] = Interaction of prodrug compounds with GSH by UV/Vis spectroscopy; type: physicochemical; details: period of days
Text: (§3) The photoactivated DNA crosslinking Ru(bpy)2 species retained its ability to damage DNA, even at higher GSH concentrations.

[13] = test system: A549 lung cancer cells; experiment: Cell survival assay, A549 monolayer; type: cell-based
Description: as §1, §2

[14] = test system: HL60 leukemia cells and A549 lung cancer cells; experiment: Cell cytotoxicity studies, summary over HL60 and A549; type: cell-based
Description: as §1, §2

[15] = Photoejection followed by UV/Vis absorption spectroscopy (Example 2); details: >450 nm light
Description: Absorption spectra were obtained on an Agilent 8453 Diode Array spectrophotometer (Santa Clara, Calif.). Photoexpulsion experiments were performed using a Dell 200 Watt 1410X projector (for in vitro photoejection experiments) or 410 Watt 955 Model 900 AJH projector (for cell cytotoxicity studies) (Dell Inc.; Round Rock, Tex.) fitted with an Edmund Optics filter (NT43-935) (Barrington, N.J.). UV/Vis experiments were performed in a 1-cm pathlength quartz cuvette located 18 inches from the projector. Kinetics were fit using the equation for a single exponential with the Prism software package.

[16] = test system: pUC19 plasmid; experiment: Plasmid-compound gel analysis (Example 2); details: visible light 200 W, 1 hour
Description: Plasmid-compound gel analysis: Plasmid pUC19 was obtained from Bio-Rad (Hercules, Calif.), transformed into DH5a cells and positive transformants were selected by colony formation on Ampicillin LB-Agar plates. Colonies were grown in LB and plasmid isolated using a Maxi-prep plasmid isolation kit (Qiagen; Velno, Netherlands). Plasmid amounts were quantified by UV/VIS. For dosing studies, 40 μg/ml of plasmid was incubated with compound dosed from 0 to 500 μM in 96 well plates. They were incubated for 30 min prior to light activation for 1 hour using a Dell 1410x 200 W projector fitted with a >450 nm cut-off filter. Dark controls were performed by keeping the DNA:compound mixtures in the dark. The samples were incubated overnight after light activation before gel analysis; the dark samples were also incubated for the same time period. Linear plasmid and relaxed circle plasmid were generated and run side-by-side with compound treated samples. Linear plasmid was generated using the EcoRI restriction enzyme (New England BioLabs; Ipswich, Mass.) following the manufacturers protocol. Single cut, relaxed circle, plasmid was generated using the copper phenanthroline reaction. Reaction was carried out in 10 mM phosphate buffer pH 7.5, with 40 μg/ml plasmid, 1 mM DTT, 1 mM hydrogen peroxide, and 5 μM copper phenanthroline for 30 min at 25° C. The addition of DTT reduced the copper phenanthroline to the +1 charge state, followed by reaction with peroxide created the damage to the DNA. Samples were resolved on a 1% non-EB (ethidium bromide) agarose gel followed by 40 minutes of staining with 0.5 μg/ml EB in Tris-Acetate buffer followed by 40 minutes of destaining in Tris-Acetate before imaging.

[17] = test system: pUC19 plasmid; experiment: Glutathione assay: pUC19 crosslinking with increasing GSH; type: biochemical; details: 30 μM compound, 0.01-40 mM GSH; 4 light-activated
Description: The concentrations of GSH were 0.01, 0.1, 1, 10, 40 mM, giving a molar ratio between the compounds and glutathione of a) 1:0.3, b) 1:3.3, c) 1:33, d) 1:333, e) 1:1333. […] Control reactions with pUC19 in the presence and absence of GSH were carried out for 12 hrs in the dark with 25 μg/ml plasmid and 40 mM GSH in 10 mM phosphate buffer, pH 7.5. The plasmid was resolved on a 1% agarose gel as described above.
as §3

[18] = test system: A549 cells; experiment: Glutathione assay in A549 cells (cytoprotection); type: cell-based; details: co-dosed with increasing GSH
Description: A549 cells were plated in Optimem supplemented with 1% serum supreme and penicillin/streptomycin in 96 well plates as described above. […] Cellular viability was determined by measuring ATP concentration with CellTiter Glo (Promega). Data were fit to an equation for sigmoidal dose response shown above using the Prism software package.

[19] = Light and dark cytotoxicity of exemplary compounds (Table 6); type: cell-based; details: for IC50: cell line not stated
Text: This Example describes additional specific embodiments the presently-disclosed subject matter. […] The methods for making and characterizing the compounds are based on the methodologies described in the previous examples.

[20] = test system: A549 tumor spheroids; experiment: A549 tumor spheroid cytotoxicity; type: cell-based
Description: A549 cells were seeded at 2,500 cells/well in 1.5% agarose coated 96-well plates. After 7 days the spheroids were dosed with compounds and incubated for 12 hrs. […] Cellular viability was determined 72 hours after light activation for the irradiated samples and at the same time point for the dark samples by measuring ATP concentration with CellTiter Glo (Promega). Data were fit to an equation for sigmoidal dose response shown above using the Prism software package.
3D tumor spheroids were used to test the compounds. Spheroids provide a system that approximates the complexity of in vivo tumors. These spheroids mimic the pathophysiology of tumors, including hypoxic/necrotic regions, changes in cell shape, high proportions of quiescent cells, alterations in gene expression profiles, and diminished permeability to drugs. […] To characterize the light-activated ruthenium compounds under more challenging and biologically relevant conditions, efficacy was assessed in a 3D tumor model by forming tumor spheroids with A549 cells.
Spheroids of about 600 μm in diameter were dosed with compounds and then either kept in the dark or irradiated with >450 nm light for 3 minutes.

## O=S(=O)([O-])c1ccc(-c2ccnc3c2ccc2c(-c4ccc(S(=O)(=O)[O-])cc4)ccnc23)cc1.O=S(=O)([O-])c1ccc(-c2ccnc3c2ccc2c(-c4ccc(S(=O)(=O)[O-])cc4)ccnc23)cc1.O=S(=O)([O-])c1ccc(-c2ccnc3c2ccc2c(-c4ccc(S(=O)(=O)[O-])cc4)ccnc23)cc1.[Ru+2] [Compound 10, Ru(bathophenanthorlinedisulfonate)3]
[1]
  amount within the cells after irradiation: 1.6%
[2]
  cell viability: 70±12%
[2]; 24 hours
  viable cells remaining: 70% and 59±4%
[2]; 48 hours
  viable cells remaining: 55%
[3]
  genomic DNA laddering: absent
[4]; absence of light
  PARP and caspase 3 activation: did not display PARP or caspase 3 cleavage
[4]; irradiated
  PARP and caspase 3 activation: induced PARP as early as 2 hours
[4]
  55 kDa PARP fragment (marker for necrosis): lower level of the 55 kDa PARP fragment
[5]
  DNA damage when exposed to light: induced single strand DNA breaks
[6]
  effect on mitochondrial potential: did not significantly reduce the mitochondrial potential
[7]
  time at which intracellular levels plateau: around 8 hours
[8]
  increase of average emission of cells between 2 and 24 hours: 4 fold
[9]
  Log P: −2.2 ± 0.12

## Ru(bathophenanthroline)3 [Compound 9]
[2]
  time to cell death after irradiation: ≤ 2 h
  cell viability: about 0%
[3]
  genomic DNA laddering: absent
[4]; absence of light
  PARP and caspase 3 activation: after 18 and 24 hours and to a lesser degree
[4]; irradiated
  PARP and caspase 3 activation: induced the proteolytic activation of both PARP and caspase 3 within 2 hours of irradiation
[4]
  55 kDa PARP fragment (marker for necrosis): produced this fragment at significant levels
[5]
  DNA damage when exposed to light: induced single strand DNA breaks
[5]; light and dark
  concentrations at which precipitation of the complex with the DNA was observed: above 31.3 μM
[6]
  effect on mitochondrial potential: rapid and complete depolarization of mitochondria
[6]; dark, 2 hours post treatment
  mitochondrial function: completely impaired
[6]; within 2 hours of irradiation
  mitochondrial function: about 0%
[7]
  time at which intracellular levels plateau: around 8 hours
[9]
  Log P: 1.8 ± 0.02

## Ru(bpy)2dppz [Compound 7, reference compound]
[10]
  Kb: 1e+07 M⁻¹

## Cc1cccc(-c2cccc(C)n2)n1.F[P-](F)(F)(F)(F)F.F[P-](F)(F)(F)(F)F.[Ru+2].c1ccc(-c2ccccn2)nc1.c1ccc(-c2ccccn2)nc1 [Compound 4, Ru(bpy)2-6,6′dmbpy]
[11]; 3 min >450 nm light, 72 hours, read-out: Light IC50 HL60
  IC50: 1600 nM
[11]; dark, read-out: Dark IC50 HL60
  IC50: > 300000 nM
[11]; ratio of dark and light IC50
  Phototoxicity Index, PI HL60: >188
[12]
  interaction with GSH: did not interact with GSH
[13]; 3 min >450 nm light, 72 hours, read-out: Light IC50 A549
  IC50: 1.1 µM
[13]; dark, read-out: Dark IC50 A549
  IC50: 150 µM
[13]; ratio of dark and light IC50
  Phototoxicity Index, PI A549: 136
[14]; >450 nm light 3 minutes vs dark
  activity light versus dark: light-triggered toxicity
[14]; after irradiation
  IC50 values after irradiation: single μM IC50 values
[14]; dark
  dark toxicity (none observed up to this concentration): > 300 µM
[15]
  reaction kinetics of 4 relative to 5: 30 fold
[16]
  type of DNA damage upon visible light: DNA photobinding
[17]
  plasmid DNA crosslinking in presence of increasing GSH: greater DNA binding than cisplatin
[18]
  effect of GSH on cytotoxicity: not
[19]; read-out: Dark IC50
  IC50: 300 µM
[19]; read-out: Light IC50
  IC50: 1.5 µM
[19]; dark IC50/light IC50
  Phototoxicity Index: 200
[20]; 3 min >450 nm light, 72 hours, read-out: Light IC50 A549 spheroid
  IC50: 21 µM and 21.3 µM
[20]; dark, read-out: Dark IC50 A549 spheroid
  IC50: > 300 µM
[20]; ratio of spheroid and monolayer culture IC50
  MCR Index: 19.4

Reference: US9290528B1, “Light-activated compounds” (University of Kentucky Research Foundation, priority 2013, dated 2016)
